The source of these data is ChEMBL document CHEMBL5352406 (Eur J Med Chem, 2022).

One test relates to HCT-116. The experiment in a line: Antiproliferative activity against human HCT-116 cells assessed as cell growth inhibition after 72 hrs by MTT assay. Type of test: functional. On the technique in general: Tetrazolium dyes change colour on reduction, which living cells bring about.
The test system of a further test is MCF7. The experiment in a line: Antiproliferative activity against human MCF7 cells assessed as cell growth inhibition after 72 hrs by MTT assay. The class given is functional.
The target of another test is Cholinesterase (Equus caballus, UniProt P81908). Put plainly: Inhibition of equine serum BuChE using […] as substrate for 20 mins by Ellman's method.
Another test deals with SW480. The experiment in a line: Antiproliferative activity against human SW480 cells assessed as cell growth inhibition after 72 hrs by MTT assay. The class given is functional.
Test [1] addresses CDK9/cyclin T1 (Homo sapiens) (UniProt O60563+P50750). Put plainly: Inhibition of CDK9/CyclinT1 (unknown origin) at 500 nM by ADP-Glo kinase assay relative to control. The class given is protein-complex assay. Background: ADP-Glo first removes unused ATP, then detects ADP through luciferase.
The subject of the next test is A549. The experiment in a line: Antiproliferative activity against human A549 cells assessed as cell growth inhibition after 72 hrs by MTT assay. The class given is functional.
A further test has as its target CDK2/Cyclin A2 (Homo sapiens, UniProt P24941). Type of test: protein-complex assay.
The target in a further test is Acetylcholinesterase (Electrophorus electricus, UniProt O42275). The experiment in a line: Inhibition of electric eel AChE using acetylthiocholine […] as substrate for 20 mins by Ellman's method. (In general: DTNB colorimetry detects thiols as they appear.)
Test [2] is described as follows: Selectivity index, ratio of IC50 for equine serum BuChE to IC50 for CDK9/CyclinT1 (unknown origin).
Test [3] is described as follows: Selectivity index, ratio of IC50 for electric eel AChE to IC50 for CDK9/CyclinT1 (unknown origin).
The target in a further test is CDK9/cyclin T1 (Homo sapiens, UniProt P50750).
Test [4] in a line: Selectivity index, ratio of IC50 for human full length CDK2/CyclinA to IC50 for CDK9/CyclinT1 (unknown origin).

Where only a bound is given, the exact number is not on record here.

Sequence of CDK9/cyclin T1 (O60563 whole entry): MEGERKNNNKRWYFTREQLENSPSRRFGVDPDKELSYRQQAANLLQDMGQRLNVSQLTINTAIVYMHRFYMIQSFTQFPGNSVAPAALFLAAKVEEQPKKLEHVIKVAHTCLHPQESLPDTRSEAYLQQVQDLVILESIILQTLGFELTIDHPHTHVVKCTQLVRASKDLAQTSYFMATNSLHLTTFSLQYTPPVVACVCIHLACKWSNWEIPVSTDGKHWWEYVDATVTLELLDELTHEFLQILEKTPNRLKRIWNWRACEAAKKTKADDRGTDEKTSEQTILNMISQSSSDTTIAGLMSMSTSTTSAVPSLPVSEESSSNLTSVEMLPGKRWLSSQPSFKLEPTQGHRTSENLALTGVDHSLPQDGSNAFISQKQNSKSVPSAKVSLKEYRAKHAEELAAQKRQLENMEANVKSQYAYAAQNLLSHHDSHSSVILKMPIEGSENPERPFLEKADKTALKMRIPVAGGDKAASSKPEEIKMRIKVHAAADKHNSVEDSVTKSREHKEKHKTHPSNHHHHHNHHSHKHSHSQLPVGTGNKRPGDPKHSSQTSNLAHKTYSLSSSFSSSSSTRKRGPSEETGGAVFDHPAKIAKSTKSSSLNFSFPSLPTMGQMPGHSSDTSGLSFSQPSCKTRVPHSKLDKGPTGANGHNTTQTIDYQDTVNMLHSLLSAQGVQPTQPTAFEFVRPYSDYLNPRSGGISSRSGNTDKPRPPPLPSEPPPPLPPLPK
Sequence of CDK9/cyclin T1 (P50750 whole entry): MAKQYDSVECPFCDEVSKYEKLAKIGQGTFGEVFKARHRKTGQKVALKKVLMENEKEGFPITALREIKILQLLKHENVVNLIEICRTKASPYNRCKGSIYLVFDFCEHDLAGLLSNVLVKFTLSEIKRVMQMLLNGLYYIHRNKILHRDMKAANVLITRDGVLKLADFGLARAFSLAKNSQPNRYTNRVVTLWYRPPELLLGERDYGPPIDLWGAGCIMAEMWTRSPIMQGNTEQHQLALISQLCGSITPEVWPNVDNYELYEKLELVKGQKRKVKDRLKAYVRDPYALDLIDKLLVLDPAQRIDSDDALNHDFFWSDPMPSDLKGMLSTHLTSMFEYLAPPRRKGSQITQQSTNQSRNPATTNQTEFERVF
Sequence of Cholinesterase (P81908 whole entry): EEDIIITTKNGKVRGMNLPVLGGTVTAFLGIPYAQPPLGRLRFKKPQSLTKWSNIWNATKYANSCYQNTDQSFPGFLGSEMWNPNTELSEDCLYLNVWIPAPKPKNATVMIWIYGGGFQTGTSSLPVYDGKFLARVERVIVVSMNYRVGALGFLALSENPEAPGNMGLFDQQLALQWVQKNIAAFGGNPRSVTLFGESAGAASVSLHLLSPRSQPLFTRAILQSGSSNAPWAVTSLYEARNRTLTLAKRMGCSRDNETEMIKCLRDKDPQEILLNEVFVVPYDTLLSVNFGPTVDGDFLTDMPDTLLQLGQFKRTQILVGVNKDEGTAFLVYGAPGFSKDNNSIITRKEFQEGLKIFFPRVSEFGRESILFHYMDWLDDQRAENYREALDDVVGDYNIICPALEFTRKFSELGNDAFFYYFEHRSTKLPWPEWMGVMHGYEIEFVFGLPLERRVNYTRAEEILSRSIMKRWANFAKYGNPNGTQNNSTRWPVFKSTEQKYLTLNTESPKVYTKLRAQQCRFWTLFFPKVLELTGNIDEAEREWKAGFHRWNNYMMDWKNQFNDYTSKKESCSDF
Sequence of Acetylcholinesterase (O42275 whole entry): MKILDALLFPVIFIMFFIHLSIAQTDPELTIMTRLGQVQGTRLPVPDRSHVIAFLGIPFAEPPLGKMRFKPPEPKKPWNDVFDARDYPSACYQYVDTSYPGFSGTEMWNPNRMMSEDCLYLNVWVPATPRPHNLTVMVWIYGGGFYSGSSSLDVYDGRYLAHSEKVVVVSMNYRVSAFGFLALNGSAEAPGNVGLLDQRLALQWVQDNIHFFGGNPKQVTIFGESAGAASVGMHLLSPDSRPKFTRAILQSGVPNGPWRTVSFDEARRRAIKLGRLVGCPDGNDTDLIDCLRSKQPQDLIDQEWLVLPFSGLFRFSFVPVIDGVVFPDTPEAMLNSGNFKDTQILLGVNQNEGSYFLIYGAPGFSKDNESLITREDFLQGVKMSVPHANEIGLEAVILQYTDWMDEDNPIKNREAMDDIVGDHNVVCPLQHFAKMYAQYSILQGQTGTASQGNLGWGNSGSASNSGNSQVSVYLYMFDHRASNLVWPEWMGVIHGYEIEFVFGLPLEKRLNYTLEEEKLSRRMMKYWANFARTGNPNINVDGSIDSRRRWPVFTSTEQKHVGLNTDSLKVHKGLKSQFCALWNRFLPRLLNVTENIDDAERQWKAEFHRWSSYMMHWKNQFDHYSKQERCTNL
Description for CDK2/Cyclin A2: Inhibition of human full length CDK2/CyclinA2 by ADP-Glo kinase assay

In general, GI50 refers to the concentration at which growth is held to half of that of the control. In general, IC50 refers to the concentration that gives 50% inhibition. In general, inhibition refers to the drop in the measured response relative to a control, in per cent. With `N[C@H]1CCN(c2c3c(nc4ccc(-c5ccnc(F)c5)cc24)CCCCC3)C1`, the GI50 was found to be 3980 nM with HCT-116, 7080 nM in the test on MCF7, 4690 nM in the test on SW480 and 8440 nM in the test on A549. Further, the IC50 at Cholinesterase was 2250 nM; against CDK2/Cyclin A2, over 500 nM; on Acetylcholinesterase it was 21400 nM. The same molecule yielded an inhibition in test [1] of 73%.

On to `N[C@H]1CCN(c2c3c(nc4ccc(-c5ccncc5)cc24)CCCCC3)C1`, for which the values for the Selectivity Index in test [2] and in [3] were 51 and 2970, respectively. Further, the GI50 in the test on HCT-116 was determined as 272 nM; in the test with MCF7, 424 nM; with SW480, 458 nM; with A549 it was 393 nM. Moreover, the IC50 is 422 nM against Cholinesterase, over 500 nM against CDK2/Cyclin A2, 8.35 nM at CDK9/cyclin T1 and 24800 nM at Acetylcholinesterase.

In the case of `N[C@H]1CCN(c2c3c(nc4ccc(-c5ccnc(NC(=O)C6CCCC6)c5)cc24)CCCCC3)C1`, the figures for the Selectivity Index in test [2], in test [4] and in [3] were 425, 6 and 6180, respectively. In addition, the concentration for 50% growth inhibition (GI50) was 134 nM with HCT-116, 210 nM in the test with MCF7, 65 nM in the test on SW480 and 83 nM in the test with A549. Moreover, the IC50 is 1180 nM on Cholinesterase, 17.6 nM against CDK2/Cyclin A2, 2.77 nM against CDK9/cyclin T1 and 17100 nM at Acetylcholinesterase.

As for `N[C@H]1CCN(c2c3c(nc4ccc(-c5ccnc(NC(=O)C6CC6)c5)cc24)CCCCC3)C1`, the Selectivity Index amounted to 894 in test [2], 3 in test [4] and 14200 in [3]. For the same molecule, the GI50 stood at 18 nM in the test with HCT-116, 76 nM in the test with MCF7, 33 nM in the test with SW480 and 28 nM with A549. The IC50 against Cholinesterase came to 1960 nM; against CDK2/Cyclin A2, 5.51 nM; at CDK9/cyclin T1 it was 2.19 nM; against Acetylcholinesterase, 31100 nM.

As to `N[C@H]1CCN(c2c3c(nc4ccc(-c5ccnc(NC(=O)C6CCCCC6)c5)cc24)CCCCC3)C1`, the Selectivity Index in [2] turned out to be 763; in [4], 27; in test [3], 9550. Also, the concentration for 50% growth inhibition (GI50) with HCT-116 is 262 nM; in the test on MCF7, 404 nM; in the test with SW480, 1260 nM; with A549, 308 nM. Also, the half-inhibitory concentration (IC50) is 1660 nM on Cholinesterase, 59.5 nM against CDK2/Cyclin A2, 2.18 nM on CDK9/cyclin T1 and 20800 nM against Acetylcholinesterase.

As for `N[C@H]1CCN(c2c3c(nc4ccc(-c5ccnc(NC(=O)C6CC6)c5)cc24)CCCCCC3)C1`, the Selectivity Index in test [4] was 2; in test [3], 9210. For the same molecule, the GI50 came to 14 nM in the test on HCT-116, 65 nM with MCF7, 34 nM in the test with SW480 and 52 nM in the test on A549. Further, the figures for the IC50 on CDK2/Cyclin A2 and on Acetylcholinesterase were 2.92 nM and 17200 nM, respectively.

In the case of `N[C@H]1CCN(c2c3c(nc4ccc(-c5cc(NC(=O)C6CC6)ncn5)cc24)CCCCC3)C1`, the Selectivity Index in [2] was 669; in test [4], 3; in [3], 1250. Also, the GI50 with HCT-116 was determined as 201 nM; in the test on MCF7, 161 nM; in the test with SW480 it was 316 nM; with A549 it was 166 nM. Also, the IC50 worked out at 3850 nM at Cholinesterase, 14.7 nM at CDK2/Cyclin A2, 5.75 nM against CDK9/cyclin T1 and 7200 nM on Acetylcholinesterase.

For the molecule `N[C@H]1CCN(c2c3c(nc4ccc(-c5ccnc(NC(=O)C6CCC6)c5)cc24)CCC3)C1`, the Selectivity Index is 497 in [2], 13 in test [4] and 275 in test [3]. For the same molecule, the GI50 worked out at 138 nM in the test on HCT-116, 333 nM in the test with MCF7, 456 nM in the test with SW480 and 195 nM in the test with A549. The IC50 at Cholinesterase is 3180 nM; on CDK2/Cyclin A2, 86 nM; against CDK9/cyclin T1, 6.39 nM; on Acetylcholinesterase, 1760 nM.

As for `CN(C)S(=O)(=O)c1ccc(Nc2cc(-c3ccc4nc5c(c(N6CC[C@H](N)C6)c4c3)CCCCC5)ccn2)cc1`, the values for the Selectivity Index in test [2], in [4] and in test [3] were 10, 0.5 and 346, respectively. Besides, the GI50 with HCT-116 amounted to 2180 nM; in the test on MCF7, 3110 nM; in the test with SW480 it was 1810 nM; with A549 it was 1990 nM. Further, the IC50 against Cholinesterase was 1060 nM; at CDK2/Cyclin A2, over 500 nM; on CDK9/cyclin T1 it was 102 nM; against Acetylcholinesterase it was 35200 nM.

For `N[C@H]1CCN(c2c3c(nc4ccc(-c5ccnc(C(=O)NC6CC6)c5)cc24)CCCCC3)C1`, the GI50 with HCT-116 is 4740 nM; with MCF7, 10400 nM; in the test on SW480, 9120 nM; with A549, over 10000 nM. The IC50 is 4990 nM against Cholinesterase, over 500 nM against CDK2/Cyclin A2, over 500 nM against CDK9/cyclin T1 and 5570 nM at Acetylcholinesterase.

In the case of `N[C@H]1CCN(c2c3c(nc4ccc(-c5ccnc(NC(=O)C6CC6)c5)cc24)-c2ccccc2CCC3)C1`, the Selectivity Index in [2] stood at 28. For the same molecule, the GI50 in the test with HCT-116 turned out to be 2670 nM; in the test on MCF7, 2220 nM; with SW480, 3050 nM; in the test with A549 it was 1900 nM. In addition, the IC50 at Cholinesterase was 3340 nM; against CDK2/Cyclin A2 it was over 500 nM; at CDK9/cyclin T1, 111 nM; against Acetylcholinesterase, over 50000 nM.

With `N[C@@H]1CCN(c2c3c(nc4ccc(-c5ccnc(NC(=O)C6CC6)c5)cc24)CCCCC3)C1`, the figures for the Selectivity Index in test [2] and in test [4] were 2560 and 3, respectively. For the same molecule, the GI50 in the test with HCT-116 worked out at 39 nM; in the test on MCF7 it was 80 nM; with SW480 it was 49 nM; in the test with A549, 41 nM. Moreover, the IC50 against Cholinesterase is 4780 nM; against CDK2/Cyclin A2 it was 6.46 nM.

Regarding `N[C@H]1CCN(c2c3c(nc4ccc(-c5nccc(NC(=O)C6CC6)n5)cc24)CCCCC3)C1`, the GI50 in the test on HCT-116 was over 3000 nM; with MCF7 it was 8390 nM; in the test with SW480 it was over 3000 nM; in the test with A549, over 10000 nM. Also, the IC50 at Cholinesterase was 2510 nM; against CDK2/Cyclin A2, over 500 nM; at CDK9/cyclin T1, over 500 nM; on Acetylcholinesterase, 17600 nM.

In the case of `N[C@H]1CCN(c2c3c(nc4ccc(-c5ccnc(NC(=O)C6CCC6)c5)cc24)CCCCCC3)C1`, the results for the Selectivity Index in test [2], in test [4] and in test [3] were 235, 3 and 8920, respectively. Besides, the GI50 in the test on HCT-116 was 46 nM; in the test with MCF7, 108 nM; in the test with SW480, 118 nM; in the test on A549 it was 109 nM. For the same molecule, the IC50 against Cholinesterase came out at 698 nM; on CDK2/Cyclin A2, 7.74 nM; at CDK9/cyclin T1, 2.97 nM; on Acetylcholinesterase, 26500 nM.

For the molecule `N[C@H]1CCN(c2c3c(nc4ccc(-c5cccnc5)cc24)CCCCC3)C1`, the GI50 was over 10000 nM with HCT-116, over 10000 nM with MCF7, over 3000 nM in the test on SW480 and over 10000 nM with A549. Besides, the IC50 against Cholinesterase is 722 nM; on CDK2/Cyclin A2 it was over 500 nM; on CDK9/cyclin T1, over 500 nM; against Acetylcholinesterase, 13700 nM.

For the molecule `N[C@H]1CCN(c2c3c(nc4ccc(-c5ccnc(NC(=O)C6CC6)c5)cc24)CCC3)C1`, the Selectivity Index in test [2] is 1790; in test [4] it was 75; in test [3], 671. Besides, the GI50 came out at 73 nM in the test on HCT-116, 203 nM in the test with MCF7, 251 nM in the test on SW480 and 191 nM with A549. Besides, the IC50 on Cholinesterase came to 6010 nM; against CDK2/Cyclin A2, 252 nM; at CDK9/cyclin T1 it was 3.36 nM; on Acetylcholinesterase, 2250 nM.

As for `N[C@H]1CCN(c2c3c(nc4ccc(-c5ccnc(NC(=O)C6CC6)c5)cc24)CCCC3)C1`, the values for the GI50 with HCT-116, with MCF7 and in the test on SW480 were 29 nM, 109 nM and 328 nM, respectively. Also, it took 2.23 nM to reach half-maximal inhibition against CDK9/cyclin T1 (IC50).

Regarding `N[C@H]1CCN(c2c3c(nc4ccc(-c5ccnc(NC(=O)C6CCC6)c5)cc24)CCCCC3)C1`, the Selectivity Index in test [2] turned out to be 288; in test [4] it was 3; in [3], 4290. Also, the GI50 with HCT-116 was 86 nM; in the test on MCF7, 168 nM; with SW480, 80 nM; in the test with A549, 77 nM. For the same molecule, the IC50 amounted to 1180 nM against Cholinesterase, 10.7 nM on CDK2/Cyclin A2, 4.11 nM at CDK9/cyclin T1 and 17600 nM against Acetylcholinesterase.

With `N[C@H]1CCN(c2c3c(nc4ccc(-c5ccccc5)cc24)CCCCC3)C1`, the GI50 in the test on HCT-116 was 5880 nM; in the test with MCF7 it was 4060 nM; in the test on SW480, 2930 nM; in the test with A549, 9530 nM. In addition, the IC50 against Cholinesterase is 133 nM; on CDK2/Cyclin A2 it was over 500 nM; at CDK9/cyclin T1, over 500 nM; on Acetylcholinesterase it was 19100 nM.

With `N[C@H]1CCN(c2c3c(nc4ccc(-c5ccnc(NC(=O)C6CC6)n5)cc24)CCCCCC3)C1`, the Selectivity Index in test [2] came to 948; in [4], 7; in test [3] it was 7200. Besides, the GI50 amounted to 14 nM in the test with HCT-116, 71 nM with MCF7, 18 nM in the test on SW480 and 64 nM with A549. Besides, the IC50 came out at 2730 nM against Cholinesterase, 18.7 nM against CDK2/Cyclin A2, 2.88 nM at CDK9/cyclin T1 and 20700 nM against Acetylcholinesterase.
